# Values of other authors in PubChem BioAssay AID1259409 (Chemical Carcinogenesis Research Information System (CCRIS), 2018).
# Tested on: rodent chemically induced tumor inhibition, incidence and multiplicity
# Experiment: CCRIS tumor inhibitor studies
# Conditions: for outcome: Strain/Sex: SENCAR/FEMALE, Target Tissue: Type of Lesion: SKIN: TUMOR, Dose [Carcinogen]: 40 NMOL IN 0.2 ML ACETONE ONCE
structure (smiles),measurement,setting,value
CC1(C)[C@@H](O)CC[C@]2(C)[C@H]3C(=O)C=C4[C@@H]5C[C@@](C)(C(=O)O)CC[C@]5(C)CC[C@@]4(C)[C@]3(C)CC[C@@H]12,outcome,"Carcinogen: 7,12-DIMETHYLBENZ[A]ANTHRACENE, 57-97-6, Dose [Inhibitor]: 0, 10 UMOL IN 0.2 ML DMSO/ACETONE (1:2) 1/D BEGINNING 7 D PRIOR TO CARCINOGEN DOSE (STUDY DURATION: 16 WK), Route [Inhibitor]: DERMAL, Species: MOUSE","100%, 45%, 55%, not calculated at 9 wk; 100%, 85%, 15%, not calculated at 16 wk"
same,outcome,"Carcinogen: 7,12-DIMETHYLBENZ[A]ANTHRACENE, 57-97-6, Dose [Inhibitor]: 0, 30 UMOL IN DMSO/ACETONE (1:2) 30 MIN PRIOR TO EACH PROMOTER DOSE (STUDY DURATION: 16 WK), Route [Inhibitor]: DERMAL, Species: MOUSE","100%, 40%, 60%, not calculated at 9 wk; 100%, 80%, 20%, not calculated at 16 wk"
same,"tumour outcome (control, treated, inhibition, significance)","Carcinogen: 7,12-DIMETHYLBENZ[A]ANTHRACENE, 57-97-6, Dose [Inhibitor]: 10 UMOL APPLIED 40 MINUTES PRIOR TO PROMOTER DOSE (STUDY DURATION: 20 WK), Route [Inhibitor]: DERMAL, Species: MOUSE, Strain/Sex: ICR/FEMALE, Target Tissue: Type of Lesion: SKIN: PAPILLOMA, Dose [Carcinogen]: 100 UG ONCE","100%, 40%, 60%, p<0.05"
same,"tumour outcome (control, treated, inhibition, significance)","Carcinogen: AZOXYMETHANE, 25843-45-2, Dose [Inhibitor]: 0, 1200 PPM IN DIET BEGINNING 1 WK PRIOR TO CARCINOGEN TREATMENT FOR DURATION OF STUDY (STUDY DURATION: 54 WK), Route [Inhibitor]: ORAL, Species: RAT, Strain/Sex: F344/MALE, Target Tissue: Type of Lesion: COLON: ADENOCARCINOMA, Dose [Carcinogen]: 15 MG/KG/BW 1/WK FOR 2 WK, Promoter: NONE USED","58%, 78%, -35%, not calculated"
same,"tumour outcome (control, treated, inhibition, significance)","Carcinogen: AZOXYMETHANE, 25843-45-2, Dose [Inhibitor]: 0, 1200 PPM IN DIET BEGINNING 1 WK PRIOR TO CARCINOGEN TREATMENT FOR DURATION OF STUDY (STUDY DURATION: 54 WK), Route [Inhibitor]: ORAL, Species: RAT, Strain/Sex: F344/MALE, Target Tissue: Type of Lesion: COLON: ADENOMA, Dose [Carcinogen]: 15 MG/KG/BW 1/WK FOR 2 WK, Promoter: NONE USED","6%, 6%, 0%, not calculated"
same,"tumour outcome (control, treated, inhibition, significance)","Carcinogen: AZOXYMETHANE, 25843-45-2, Dose [Inhibitor]: 0, 2400 PPM IN DIET BEGINNING 1 WK PRIOR TO CARCINOGEN TREATMENT FOR DURATION OF STUDY (STUDY DURATION: 54 WK), Route [Inhibitor]: ORAL, Species: RAT, Strain/Sex: F344/MALE, Target Tissue: Type of Lesion: COLON: ADENOMA, Dose [Carcinogen]: 15 MG/KG/BW 1/WK FOR 2 WK, Promoter: NONE USED","6%, 6%, 0%, not significant"
same,"tumour outcome (control, treated, inhibition, significance)","Carcinogen: AZOXYMETHANE, 25843-45-2, Dose [Inhibitor]: 0, 2400 PPM IN DIET BEGINNING 1 WK PRIOR TO CARCINOGEN TREATMENT OF DURATION OF STUDY (STUDY DURATION: 54 WK), Route [Inhibitor]: ORAL, Species: RAT, Strain/Sex: F344/MALE, Target Tissue: Type of Lesion: COLON: ADENOCARCINOMA, Dose [Carcinogen]: 15 MG/KG/BW 1/WK FOR 2 WK, Promoter: NONE USED","58%, 53%, 9%, not calculated"
